Data taken from ChEMBL document CHEMBL1146950, “Matrix compare analysis discriminates subtle structural differences in a family of novel antiproliferative agents, diaryl-3-hydroxy-2,3,3a,10a-tetrahydrobenzo[b]cycylopenta[e]azepine-4,10(1H,5H)-diones” (2006).

Tests used:
NCI-H460 = assay: Antiproliferative activity against NCI-H460 cell line; type: functional, Homo sapiens
HOP-62 = assay: Antiproliferative activity against HOP62 cell line; type: functional, Homo sapiens; parameters: unit not given here
[1] = biological target: Insulin-like growth factor 1 receptor (Homo sapiens) (UniProt P08069); assay: Inhibition of IGF1R at 10 uM in presence of 0.1 uM ATP
[2] = biological target: Receptor tyrosine-protein kinase erbB-2 (Homo sapiens) (UniProt P04626); assay: Inhibition of ErbB2 at 10 uM in presence of 0.1 uM ATP
[3] = biological target: T1, Ephrin type-B receptor 4 (Homo sapiens) (UniProt P54760); assay: Inhibition of EPHB4 at 10 uM in presence of 0.1 uM ATP
T1 sequence (whole entry): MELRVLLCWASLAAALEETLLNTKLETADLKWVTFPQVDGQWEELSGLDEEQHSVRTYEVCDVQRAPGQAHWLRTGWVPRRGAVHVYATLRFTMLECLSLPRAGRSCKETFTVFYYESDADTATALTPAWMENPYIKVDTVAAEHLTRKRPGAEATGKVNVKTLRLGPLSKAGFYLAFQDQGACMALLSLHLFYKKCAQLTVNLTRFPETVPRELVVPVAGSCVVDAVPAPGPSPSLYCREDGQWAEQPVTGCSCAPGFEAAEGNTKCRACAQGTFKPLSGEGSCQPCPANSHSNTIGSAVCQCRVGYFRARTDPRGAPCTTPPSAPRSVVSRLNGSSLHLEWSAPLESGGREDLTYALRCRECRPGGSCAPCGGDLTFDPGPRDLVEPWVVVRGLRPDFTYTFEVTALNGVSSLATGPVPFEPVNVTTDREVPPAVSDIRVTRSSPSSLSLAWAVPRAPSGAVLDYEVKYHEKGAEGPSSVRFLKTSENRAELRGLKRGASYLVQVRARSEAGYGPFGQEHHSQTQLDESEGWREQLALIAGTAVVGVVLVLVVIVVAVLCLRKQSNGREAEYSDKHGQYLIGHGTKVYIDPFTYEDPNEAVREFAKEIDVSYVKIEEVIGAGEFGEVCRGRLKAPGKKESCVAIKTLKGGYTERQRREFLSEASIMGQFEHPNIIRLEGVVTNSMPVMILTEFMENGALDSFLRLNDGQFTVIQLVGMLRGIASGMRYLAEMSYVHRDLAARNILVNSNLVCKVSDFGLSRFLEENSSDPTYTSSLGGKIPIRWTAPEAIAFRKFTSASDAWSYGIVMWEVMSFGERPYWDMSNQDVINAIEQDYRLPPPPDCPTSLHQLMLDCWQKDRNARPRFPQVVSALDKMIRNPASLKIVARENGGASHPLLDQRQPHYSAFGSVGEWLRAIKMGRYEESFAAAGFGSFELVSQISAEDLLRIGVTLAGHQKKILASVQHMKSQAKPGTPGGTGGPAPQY

[4] = biological target: Angiopoietin-1 receptor (Homo sapiens) (UniProt Q02763); assay: Inhibition of TIE2 at 10 uM in presence of 0.1 uM ATP
Sequence of Angiopoietin-1 receptor (Homo sapiens) (Q02763 whole entry): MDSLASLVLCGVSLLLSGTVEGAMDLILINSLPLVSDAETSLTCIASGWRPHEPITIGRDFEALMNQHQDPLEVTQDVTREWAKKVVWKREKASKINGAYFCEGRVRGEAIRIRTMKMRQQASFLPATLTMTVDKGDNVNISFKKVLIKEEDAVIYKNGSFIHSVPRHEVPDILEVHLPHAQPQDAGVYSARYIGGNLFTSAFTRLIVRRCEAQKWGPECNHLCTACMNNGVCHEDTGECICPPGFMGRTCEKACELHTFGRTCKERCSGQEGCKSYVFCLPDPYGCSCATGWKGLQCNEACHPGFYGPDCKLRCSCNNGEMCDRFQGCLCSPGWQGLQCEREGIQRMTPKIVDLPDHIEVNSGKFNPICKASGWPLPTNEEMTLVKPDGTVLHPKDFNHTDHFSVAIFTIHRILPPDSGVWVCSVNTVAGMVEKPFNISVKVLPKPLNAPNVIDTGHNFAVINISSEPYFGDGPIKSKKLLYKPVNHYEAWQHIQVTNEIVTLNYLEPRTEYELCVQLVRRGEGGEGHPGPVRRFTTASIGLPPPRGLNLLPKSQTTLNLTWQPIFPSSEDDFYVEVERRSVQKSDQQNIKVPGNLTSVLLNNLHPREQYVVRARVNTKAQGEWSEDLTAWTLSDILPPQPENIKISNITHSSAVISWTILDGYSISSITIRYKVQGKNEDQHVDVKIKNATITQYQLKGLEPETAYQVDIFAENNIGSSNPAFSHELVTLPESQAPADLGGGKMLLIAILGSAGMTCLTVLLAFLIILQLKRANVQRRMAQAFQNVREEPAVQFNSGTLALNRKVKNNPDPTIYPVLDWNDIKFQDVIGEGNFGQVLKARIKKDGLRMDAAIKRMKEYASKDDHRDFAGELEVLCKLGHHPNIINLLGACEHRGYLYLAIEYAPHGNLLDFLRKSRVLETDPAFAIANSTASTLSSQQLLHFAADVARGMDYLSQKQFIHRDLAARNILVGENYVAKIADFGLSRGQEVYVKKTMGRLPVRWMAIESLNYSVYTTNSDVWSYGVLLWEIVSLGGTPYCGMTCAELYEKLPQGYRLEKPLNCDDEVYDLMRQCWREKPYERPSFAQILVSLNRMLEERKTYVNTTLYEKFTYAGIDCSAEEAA

[5] = biological target: Vascular endothelial growth factor receptor 2 (Homo sapiens) (UniProt P35968); assay: Inhibition of VEGFR2 at 10 uM in presence of 0.1 uM ATP
Sequence of Vascular endothelial growth factor receptor 2 (Homo sapiens) (P35968 whole entry): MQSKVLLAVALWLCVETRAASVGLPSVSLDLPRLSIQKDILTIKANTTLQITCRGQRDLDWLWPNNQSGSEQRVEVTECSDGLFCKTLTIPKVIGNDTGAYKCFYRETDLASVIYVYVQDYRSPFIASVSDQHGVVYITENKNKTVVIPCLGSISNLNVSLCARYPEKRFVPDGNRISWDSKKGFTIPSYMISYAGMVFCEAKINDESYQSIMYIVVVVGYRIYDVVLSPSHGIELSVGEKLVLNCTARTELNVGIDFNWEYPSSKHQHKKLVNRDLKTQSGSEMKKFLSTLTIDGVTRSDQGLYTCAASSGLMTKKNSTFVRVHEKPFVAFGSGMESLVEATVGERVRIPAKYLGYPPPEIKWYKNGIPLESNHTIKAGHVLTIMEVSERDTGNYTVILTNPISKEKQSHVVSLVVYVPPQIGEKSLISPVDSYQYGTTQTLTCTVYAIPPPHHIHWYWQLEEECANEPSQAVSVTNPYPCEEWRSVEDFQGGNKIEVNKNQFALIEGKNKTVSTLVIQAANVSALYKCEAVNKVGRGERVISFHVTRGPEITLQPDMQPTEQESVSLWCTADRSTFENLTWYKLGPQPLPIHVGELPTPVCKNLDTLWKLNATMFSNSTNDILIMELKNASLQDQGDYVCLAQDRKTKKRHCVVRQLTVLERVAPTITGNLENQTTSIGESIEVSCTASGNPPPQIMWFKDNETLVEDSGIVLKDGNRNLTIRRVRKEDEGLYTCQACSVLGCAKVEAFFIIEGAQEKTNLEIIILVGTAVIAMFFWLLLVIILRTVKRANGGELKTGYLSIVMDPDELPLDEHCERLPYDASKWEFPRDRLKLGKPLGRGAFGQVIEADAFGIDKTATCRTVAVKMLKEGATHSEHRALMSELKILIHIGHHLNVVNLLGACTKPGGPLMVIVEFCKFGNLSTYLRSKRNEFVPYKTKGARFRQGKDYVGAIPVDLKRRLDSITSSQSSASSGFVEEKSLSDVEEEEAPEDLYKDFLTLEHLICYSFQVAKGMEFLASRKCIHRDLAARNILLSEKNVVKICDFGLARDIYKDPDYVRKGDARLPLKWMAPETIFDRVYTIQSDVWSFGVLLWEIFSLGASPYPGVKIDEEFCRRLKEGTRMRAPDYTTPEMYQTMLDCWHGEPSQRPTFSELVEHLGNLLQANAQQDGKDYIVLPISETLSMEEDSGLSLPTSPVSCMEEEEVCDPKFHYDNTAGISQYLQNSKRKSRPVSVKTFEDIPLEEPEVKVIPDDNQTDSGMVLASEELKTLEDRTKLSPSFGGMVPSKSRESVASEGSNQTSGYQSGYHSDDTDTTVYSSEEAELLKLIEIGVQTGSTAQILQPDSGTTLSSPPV

[6] = biological target: Vascular endothelial growth factor receptor 1 (Homo sapiens) (UniProt P17948); assay: Inhibition of VEGFR1 at 10 uM in presence of 0.1 uM ATP
Sequence of Vascular endothelial growth factor receptor 1 (Homo sapiens) (P17948 whole entry): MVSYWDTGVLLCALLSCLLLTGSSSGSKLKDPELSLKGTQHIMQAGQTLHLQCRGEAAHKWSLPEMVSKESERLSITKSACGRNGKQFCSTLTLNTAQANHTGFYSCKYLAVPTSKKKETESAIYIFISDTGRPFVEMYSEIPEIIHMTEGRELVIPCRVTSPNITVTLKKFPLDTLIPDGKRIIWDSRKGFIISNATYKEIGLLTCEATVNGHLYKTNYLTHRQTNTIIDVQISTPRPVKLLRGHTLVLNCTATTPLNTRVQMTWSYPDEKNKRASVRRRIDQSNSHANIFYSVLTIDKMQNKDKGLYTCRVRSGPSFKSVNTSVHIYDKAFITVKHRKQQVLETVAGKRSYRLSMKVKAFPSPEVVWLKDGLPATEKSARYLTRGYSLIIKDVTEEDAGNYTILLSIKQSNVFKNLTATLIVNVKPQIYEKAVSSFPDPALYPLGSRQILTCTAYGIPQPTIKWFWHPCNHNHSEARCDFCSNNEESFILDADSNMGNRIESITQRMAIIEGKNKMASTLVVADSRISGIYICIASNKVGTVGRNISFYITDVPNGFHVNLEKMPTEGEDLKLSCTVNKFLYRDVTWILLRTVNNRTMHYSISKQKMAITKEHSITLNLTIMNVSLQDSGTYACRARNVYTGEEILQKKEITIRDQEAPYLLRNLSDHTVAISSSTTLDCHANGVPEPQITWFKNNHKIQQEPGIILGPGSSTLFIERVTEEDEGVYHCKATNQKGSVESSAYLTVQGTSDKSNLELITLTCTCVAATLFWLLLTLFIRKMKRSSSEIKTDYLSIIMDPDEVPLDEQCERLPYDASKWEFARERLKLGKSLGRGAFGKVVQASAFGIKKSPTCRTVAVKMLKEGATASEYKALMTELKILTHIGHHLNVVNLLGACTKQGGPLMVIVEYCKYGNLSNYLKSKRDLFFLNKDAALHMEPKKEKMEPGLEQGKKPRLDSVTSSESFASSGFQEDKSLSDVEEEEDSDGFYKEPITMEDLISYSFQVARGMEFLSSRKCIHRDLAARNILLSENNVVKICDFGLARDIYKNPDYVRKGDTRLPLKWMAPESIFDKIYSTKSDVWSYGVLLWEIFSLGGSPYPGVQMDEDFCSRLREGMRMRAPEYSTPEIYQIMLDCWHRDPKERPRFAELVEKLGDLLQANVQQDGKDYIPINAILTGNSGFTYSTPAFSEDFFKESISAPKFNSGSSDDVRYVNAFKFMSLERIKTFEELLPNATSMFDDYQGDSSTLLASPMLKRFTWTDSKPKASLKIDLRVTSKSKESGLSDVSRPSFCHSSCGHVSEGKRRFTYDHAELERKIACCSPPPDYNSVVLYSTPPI

[7] = biological target: Epidermal growth factor receptor (Homo sapiens) (UniProt P00533); assay: Inhibition of EGFR at 10 uM in presence of 0.1 uM ATP
Sequence of Epidermal growth factor receptor (Homo sapiens) (P00533 whole entry): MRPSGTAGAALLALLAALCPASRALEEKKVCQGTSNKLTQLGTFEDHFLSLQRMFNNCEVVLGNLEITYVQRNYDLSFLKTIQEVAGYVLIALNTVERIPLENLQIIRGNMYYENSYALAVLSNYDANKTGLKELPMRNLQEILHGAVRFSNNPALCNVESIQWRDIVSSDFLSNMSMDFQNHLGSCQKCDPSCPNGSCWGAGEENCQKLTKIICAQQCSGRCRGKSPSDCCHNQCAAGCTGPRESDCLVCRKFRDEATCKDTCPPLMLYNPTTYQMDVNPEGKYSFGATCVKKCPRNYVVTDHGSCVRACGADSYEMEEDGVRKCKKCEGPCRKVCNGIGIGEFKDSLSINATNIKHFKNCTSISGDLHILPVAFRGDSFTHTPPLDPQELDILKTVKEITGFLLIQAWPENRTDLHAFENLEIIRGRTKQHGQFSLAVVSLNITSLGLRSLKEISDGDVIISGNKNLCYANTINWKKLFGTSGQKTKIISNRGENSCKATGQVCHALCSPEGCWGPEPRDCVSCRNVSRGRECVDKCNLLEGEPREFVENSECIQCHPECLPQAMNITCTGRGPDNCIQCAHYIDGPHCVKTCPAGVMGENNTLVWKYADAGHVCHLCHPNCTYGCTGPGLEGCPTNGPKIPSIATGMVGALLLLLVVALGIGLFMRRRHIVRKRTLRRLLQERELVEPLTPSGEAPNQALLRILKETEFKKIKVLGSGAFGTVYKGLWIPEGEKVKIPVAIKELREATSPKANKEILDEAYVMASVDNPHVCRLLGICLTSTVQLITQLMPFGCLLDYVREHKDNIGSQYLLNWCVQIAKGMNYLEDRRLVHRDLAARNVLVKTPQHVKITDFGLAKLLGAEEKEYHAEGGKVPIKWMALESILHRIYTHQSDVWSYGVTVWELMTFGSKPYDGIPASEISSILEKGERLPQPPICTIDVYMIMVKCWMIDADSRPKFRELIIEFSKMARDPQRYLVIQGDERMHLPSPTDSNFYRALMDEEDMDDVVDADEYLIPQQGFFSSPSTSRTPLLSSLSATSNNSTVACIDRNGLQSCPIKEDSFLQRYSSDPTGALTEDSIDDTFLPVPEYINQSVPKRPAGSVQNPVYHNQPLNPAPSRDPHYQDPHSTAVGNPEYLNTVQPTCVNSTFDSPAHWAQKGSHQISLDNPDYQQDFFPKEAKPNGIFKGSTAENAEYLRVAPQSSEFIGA

Row | SMILES | pGI50 (NCI-H460) [M] | pGI50 (HOP-62) | further results
1 | O=C1c2ccccc2NC(=O)[C@H]2[C@H]1C[C@@H](c1ccc(Cl)cc1)[C@]2(O)c1ccccc1 | 5.4 | 5.6 | 
2 | Cc1ccc([C@@H]2C[C@H]3C(=O)c4ccccc4NC(=O)[C@@H]3[C@@]2(O)c2ccc(C)cc2)cc1 | 5.4 | 5.2 | 
3 | COc1ccc([C@H]2C[C@](O)(c3ccccc3)[C@H]3C(=O)Nc4ccccc4C(=O)[C@H]23)cc1 | 5.1 | >4 | 
4 | O=C1c2ccccc2NC(=O)[C@H]2[C@H]1[C@@H](c1ccccc1)C[C@]2(O)c1ccc2c(c1)OCO2 | 5.6 | 4.1 | 
5 | O=C1c2ccccc2NC(=O)[C@H]2[C@H]1[C@@H](c1ccc(Cl)cc1)C[C@]2(O)c1ccccc1 | 5 | >4 | 
6 | O=C1c2ccccc2NC(=O)[C@H]2[C@H]1[C@@H](c1cccc(Cl)c1)C[C@]2(O)c1ccccc1 | 5.2 | >4 | inhibition [1]: > 50%; inhibition [2]: > 50%; inhibition [3]: > 50%; inhibition [4]: > 50%; inhibition [5]: > 50%; inhibition [6]: > 50%; inhibition [7]: > 50%
7 | COc1ccc([C@@H]2C[C@H]3C(=O)c4ccccc4NC(=O)[C@@H]3[C@@]2(O)c2ccccc2)cc1 | 4.9 | 5.6 | 
8 | O=C1c2ccccc2NC(=O)[C@H]2[C@H]1C[C@@H](c1ccccc1)[C@]2(O)c1ccccc1 | 5.4 | 5.4 | 
9 | Cc1ccc([C@@]2(O)[C@H](c3ccccc3)C[C@H]3C(=O)c4ccccc4NC(=O)[C@@H]32)cc1 | 4.7 | 5.4 | 
10 | O=C1c2ccccc2NC(=O)[C@H]2[C@H]1[C@@H](c1ccccc1)C[C@]2(O)c1cccc(Cl)c1 | 5.7 | >4 | 
11 | COc1ccc([C@H]2C[C@](O)(c3cccc(Cl)c3)[C@H]3C(=O)Nc4ccccc4C(=O)[C@H]23)cc1 | 5 | >4 | 
12 | O=C1c2ccccc2NC(=O)[C@H]2[C@H]1C[C@@H](c1cccc(Cl)c1)[C@]2(O)c1ccccc1 | 4.6 | 5.1 | 
13 | Cc1ccc([C@@]2(O)[C@H](c3ccc(Cl)cc3)C[C@H]3C(=O)c4ccccc4NC(=O)[C@@H]32)cc1 | 5.7 | 5.3 | 
14 | Cc1ccc([C@@H]2C[C@H]3C(=O)c4ccccc4NC(=O)[C@@H]3[C@@]2(O)c2ccccc2)cc1 | 5.1 | 5.6 | 
15 | O=C1c2ccccc2NC(=O)[C@H]2[C@H]1[C@@H](c1ccccc1)C[C@]2(O)c1ccc2ccccc2c1 | 6.7 | >4 | 
